According to patent US6458812B1, “Muscarinic antagonists” (Schering Corporation, priority 2000, dated 2002):
Structures can show the parent of a compound that is named as a salt.

Tests used:
[1] = Microsomal stability, rat; assay type: in vitro ADME; conditions: rat liver microsomes, 37° C.
Description: (§1) A solution of a compound of formula I at a final substrate concentration of […] and human, cynomolgus monkey or rat liver microsomes at final P450 concentrations of 0.18, 0.175 and 0.25 nmol/ml, respectively, is incubated in 0.1 M potassium phosphate buffer at pH 7.4 in 96-well micro-titre plates at 37° C. for 3 min in a shaking water bath. A cofactor solution containing MgCl2, Glucose-6-phosphate, NADPH, and Glucose-6-phosphate dehydrogenase is added to each sample (half the total incubation volume/sample) and the total incubation mixture is incubated for 0 and 30 min. (An n=3 samples is incubated for each compound). After each time point, an equal volume of CH3CN is added. The samples are mixed by vortexing and the plates are centrifuged at 3000 rpm for 20 min. The supernatant is analyzed by Liquid Chromatography Mass Spectrometry (LCMS) for parent drug and/or metabolites using an appropriate analytical method.

[2] = Microsomal stability, monkey; assay type: in vitro ADME, cynomolgus monkey; conditions: monkey liver microsomes, 37° C.
Description: as §1

[3] = Microsomal stability, human; assay type: in vitro ADME; conditions: human liver microsomes, 37° C.
Description: as §1

Row | Structure (SMILES) | melting point [°C] | % remaining after 30 min. [1] [%] | % remaining after 30 min. [2] [%] | % remaining after 30 min. [3] [%]
1 | C[C@H](NC(=O)c1ccc(CC2CCN(C3CCCCC3)CC2)cc1)c1ccc(F)cc1 (as salt: HCl) [Example 2] | 234 to 235 | – | – | –
2 | C[C@H](NC(=O)c1ccc(CC2CCN(C3CCCCC3)CC2)cc1)c1ccc(F)cc1 [Example 2] | – | 79 | 80 | 80
